Molecular target: T1, GAT2 (Homo sapiens, UniProt Q9NSD5)
T1 sequence (Q9NSD5 1-602): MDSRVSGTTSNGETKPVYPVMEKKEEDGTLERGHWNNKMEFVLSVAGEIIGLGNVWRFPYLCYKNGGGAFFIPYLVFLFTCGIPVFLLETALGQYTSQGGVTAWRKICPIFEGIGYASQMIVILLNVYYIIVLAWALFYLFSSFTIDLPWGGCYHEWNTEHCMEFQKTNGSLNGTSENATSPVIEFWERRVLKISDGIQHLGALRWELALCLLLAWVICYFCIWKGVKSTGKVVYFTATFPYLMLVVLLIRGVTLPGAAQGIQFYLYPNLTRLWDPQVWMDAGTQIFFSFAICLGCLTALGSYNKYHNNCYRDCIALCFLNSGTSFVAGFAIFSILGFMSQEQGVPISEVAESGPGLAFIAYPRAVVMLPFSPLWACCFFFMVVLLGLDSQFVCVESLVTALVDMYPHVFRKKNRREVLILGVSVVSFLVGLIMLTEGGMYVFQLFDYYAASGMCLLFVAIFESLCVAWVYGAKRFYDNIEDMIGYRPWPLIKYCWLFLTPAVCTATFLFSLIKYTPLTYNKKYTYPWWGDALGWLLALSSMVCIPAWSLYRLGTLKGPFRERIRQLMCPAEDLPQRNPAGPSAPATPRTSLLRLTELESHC
Experiment: [3H]-GABA uptake in transfected HEK293S GnTI− cells
Format: cell-based

## NCCCC(=O)O [GABA]
  [3H]-GABA uptake in transfected HEK293S GnTI- cells: Specific uptake of [^3H]-GABA in HEK293S cells expressing wild-type GAT1, wild-type GAT2

Source: article PMC9394549 (Nature, 2022)
